Measured values published in the NIST ThermoML archive (doi:10.1021/je501161t).
± gives the expanded uncertainty stated by the source.

Assay: mn = molality of the nth substance listed, in mol/kg
Conditions: 100 kPa, Liquid, Vibrating tube method

CCOS(=O)(=O)[O-].CCn1cc[n+](C)c1 [1-ethyl-3-methylimidazolium ethyl sulfate] + O
mass density [kg/m3]
Conditions	m1 = 0.0313	m1 = 0.0499	m1 = 0.0682	m1 = 0.0901	m1 = 0.1095	m1 = 0.1322
288.15 K	1000.55 ± 2	1001.4 ± 2	1002.22 ± 2	1003.21 ± 2	1004.08 ± 2	1005.09 ± 2
298.15 K	998.448 ± 2	999.27 ± 2	1000.07 ± 2	1001.04 ± 2	1001.87 ± 2	1002.86 ± 2
308.15 K	995.398 ± 2	996.212 ± 2	996.995 ± 2	997.93 ± 2	998.762 ± 2	999.712 ± 2
318.15 K	991.566 ± 2	992.377 ± 2	993.169 ± 2	994.105 ± 2	994.936 ± 2	995.897 ± 2

CCCCCCn1cc[n+](C)c1.[Br-] [3-hexyl-1-methyl-1H-imidazolium bromide] + O
mass density [kg/m3]
Conditions	m1 = 0.0314	m1 = 0.0515	m1 = 0.0703	m1 = 0.0881	m1 = 0.1098	m1 = 0.131	m1 = 0.1505	m1 = 0.1711	m1 = 0.1903
288.15 K	1000.58 ± 2	1001.52 ± 2	1002.4 ± 2	1003.23 ± 2	1004.23 ± 2	1005.18 ± 2	1006.08 ± 2	1007 ± 2	1007.87 ± 2
298.15 K	998.466 ± 2	999.368 ± 2	1000.21 ± 2	1001 ± 2	1001.96 ± 2	1002.88 ± 2	1003.74 ± 2	1004.64 ± 2	1005.47 ± 2
308.15 K	995.404 ± 2	996.284 ± 2	997.097 ± 2	997.858 ± 2	998.787 ± 2	999.688 ± 2	1000.5 ± 2	1001.4 ± 2	1002.2 ± 2
318.15 K	991.535 ± 2	992.389 ± 2	993.185 ± 2	993.932 ± 2	994.837 ± 2	995.704 ± 2	996.521 ± 2	997.358 ± 2	998.139 ± 2

CCCCn1cc[n+](C)c1.[Cl-] [1-butyl-3-methylimidazolium chloride] + O
mass density [kg/m3]
Conditions	288.15 K	298.15 K	308.15 K	318.15 K
m1 = 0.0323	999.529 ± 2	997.423 ± 2	994.372 ± 2	990.507 ± 2
m1 = 0.0586	999.875 ± 2	997.736 ± 2	994.658 ± 2	990.768 ± 2
m1 = 0.0739	1000.08 ± 2	997.92 ± 2	994.834 ± 2	990.922 ± 2
m1 = 0.0899	1000.29 ± 2	998.113 ± 2	995.007 ± 2	991.091 ± 2
m1 = 0.1048	1000.49 ± 2	998.297 ± 2	995.182 ± 2	991.26 ± 2
m1 = 0.1254	1000.76 ± 2	998.55 ± 2	995.409 ± 2	991.473 ± 2
m1 = 0.1437	1001.01 ± 2	998.776 ± 2	995.622 ± 2	991.68 ± 2
m1 = 0.1687	1001.33 ± 2	999.091 ± 2	995.913 ± 2	991.942 ± 2
m1 = 0.1789	1001.47 ± 2	999.214 ± 2	996.039 ± 2	992.06 ± 2
m1 = 0.191	1001.63 ± 2	999.373 ± 2	996.185 ± 2	992.216 ± 2
m1 = 0.2204	1002.03 ± 2	999.752 ± 2	996.541 ± 2	992.538 ± 2

COS(=O)(=O)[O-].Cn1cc[n+](C)c1 [1,3-dimethylimidazolium methylsulfate] + O
mass density [kg/m3]
Conditions	m1 = 0.0333	m1 = 0.052	m1 = 0.0743	m1 = 0.0945	m1 = 0.1147	m1 = 0.1309	m1 = 0.1517	m1 = 0.1791
288.15 K	1000.78 ± 2	1001.71 ± 2	1002.81 ± 2	1003.79 ± 2	1004.77 ± 2	1005.55 ± 2	1006.54 ± 2	1007.82 ± 2
298.15 K	998.673 ± 2	999.578 ± 2	1000.65 ± 2	1001.61 ± 2	1002.57 ± 2	1003.33 ± 2	1004.3 ± 2	1005.56 ± 2
308.15 K	995.619 ± 2	996.505 ± 2	997.553 ± 2	998.494 ± 2	999.435 ± 2	1000.18 ± 2	1001.14 ± 2	1002.38 ± 2
318.15 K	991.771 ± 2	992.648 ± 2	993.684 ± 2	994.617 ± 2	995.542 ± 2	996.28 ± 2	997.222 ± 2	998.46 ± 2

CCCCCCCCn1cc[n+](C)c1.[Br-] [1-methyl-3-octylimidazolium bromide] + O
mass density [kg/m3]
Conditions	m1 = 0.0323	m1 = 0.0501	m1 = 0.0722	m1 = 0.0908	m1 = 0.1112	m1 = 0.1301	m1 = 0.1485	m1 = 0.1707	m1 = 0.191
288.15 K	1000.51 ± 2	1001.28 ± 2	1002.24 ± 2	1003.03 ± 2	1003.9 ± 2	1004.69 ± 2	1005.47 ± 2	1006.39 ± 2	1007.25 ± 2
298.15 K	998.383 ± 2	999.121 ± 2	1000.02 ± 2	1000.77 ± 2	1001.6 ± 2	1002.36 ± 2	1003.08 ± 2	1003.99 ± 2	1004.77 ± 2
308.15 K	995.284 ± 2	995.975 ± 2	996.827 ± 2	997.539 ± 2	998.314 ± 2	999.033 ± 2	999.725 ± 2	1000.54 ± 2	1001.3 ± 2
318.15 K	991.366 ± 2	992.011 ± 2	992.796 ± 2	993.46 ± 2	994.171 ± 2	994.852 ± 2	995.483 ± 2	996.26 ± 2	996.981 ± 2

CCCCn1cc[n+](C)c1.F[B-](F)(F)F [1-butyl-3-methylimidazolium tetrafluoroborate] + O
mass density [kg/m3]
Conditions	m1 = 0.0311	m1 = 0.0527	m1 = 0.072	m1 = 0.0904	m1 = 0.1103	m1 = 0.1326	m1 = 0.1525	m1 = 0.1788
288.15 K	1000.38 ± 2	1001.26 ± 2	1002.03 ± 2	1002.76 ± 2	1003.54 ± 2	1004.4 ± 2	1005.17 ± 2	1006.16 ± 2
298.15 K	998.274 ± 2	999.116 ± 2	999.86 ± 2	1000.56 ± 2	1001.31 ± 2	1002.13 ± 2	1002.86 ± 2	1003.82 ± 2
308.15 K	995.194 ± 2	995.999 ± 2	996.713 ± 2	997.385 ± 2	998.11 ± 2	998.921 ± 2	999.635 ± 2	1000.58 ± 2
318.15 K	991.332 ± 2	992.114 ± 2	992.809 ± 2	993.467 ± 2	994.171 ± 2	994.948 ± 2	995.643 ± 2	996.555 ± 2

CCCCn1cc[n+](C)c1.[Br-] [1-butyl-3-methylimidazolium bromide] + O
mass density [kg/m3]
Conditions	m1 = 0.0317	m1 = 0.0585	m1 = 0.073	m1 = 0.0916	m1 = 0.114	m1 = 0.1319	m1 = 0.1508	m1 = 0.1706	m1 = 0.191
288.15 K	1000.71 ± 2	1002.05 ± 2	1002.78 ± 2	1003.7 ± 2	1004.8 ± 2	1005.69 ± 2	1006.6 ± 2	1007.56 ± 2	1008.55 ± 2
298.15 K	998.612 ± 2	999.924 ± 2	1000.63 ± 2	1001.53 ± 2	1002.61 ± 2	1003.47 ± 2	1004.36 ± 2	1005.3 ± 2	1006.26 ± 2
308.15 K	995.556 ± 2	996.84 ± 2	997.535 ± 2	998.413 ± 2	999.47 ± 2	1000.32 ± 2	1001.19 ± 2	1002.12 ± 2	1003.07 ± 2
318.15 K	991.699 ± 2	992.959 ± 2	993.641 ± 2	994.509 ± 2	995.544 ± 2	996.382 ± 2	997.243 ± 2	998.148 ± 2	999.08 ± 2
